Test results from patent publication US9879029B2, “ERK inhibitors” (Eli Lilly and Company, priority 2014, dated 2018).

Experiments:
[1] = system: RSK1 phosphorylation in HCT116 tumor xenograft; assay: In vivo target inhibition (IVTI) assay (pRSK1 ELISA), HCT116 xenograft; design: species or system female athymic nude mice; conditions: oral
Procedure: The purpose of this assay is to measure the ability of a test compound to inhibit ERK1/2 substrate phosphorylation in an animal model. Implant female athymic nude mice (22-25 g) from Harlan Laboratories with 5×10e^6 HCT116 colorectal cancer cells (ATCC, # CCL-247) subcutaneously in the right flank region in 200 μL of 1:1 Hank's Balanced Salt Solution (HBSS)+Matrigel solution. Measure tumor growth and body weight twice per week beginning the seventh day after the implantation. When tumor sizes reach 300-500 mm^3, randomize animals and group into groups of five animals. […]
Pulverize tumors in liquid nitrogen and lyse in 1× lysis buffer (MSD, #R60TX-3) containing 1× halt protease & phosphatase inhibitor cocktail (Thermo Scientific, #0861281), 1 mM phenylmethanesulfonyl fluoride (PMSF) (Sigma, #93482-50ML-F) and 1 μM sodium metavanadate (Sigma, #590088) using Matrix D beads (MP Biomedical, #6913-500) in a FastPrep-24™ Cell Disrupter machine (MP Biomedical) in a cold room (4° C.). […] Cool plate to room temperature and measure the absorbance at or near 562 nm on a plate reader (Envision plate reader from Perkin Elmer). Subtract the average 562 nm absorbance measurement of the blank standard replicates from the 562 nm measurements of all other individual standard and unknown (cell or tumor lysate) sample replicates. […]

[2] = system: human pancreatic cancer cells MIA PACA-2; assay: Xenograft tumor model MIA PACA-2; type: in vivo, female CB-17 SCID mice; conditions: oral, p <0.001
Procedure: (§1) The purpose of this assay is to measure reduction in tumor volume in response to test compound administration. Expand human colorectal cancer cells HCT116 (ATCC, #CCL-247) or human non-small cell lung cancer cells NCI-H358 (ATCC, # CRL-5807) in culture, harvest and inject 5×10e^6 cells in 200 μL of 1:1 HBSS+matrigel solution subcutaneously on to the rear right flank of female athymic nude mice (22-25 gm, Harlan Laboratories). Expand human pancreatic cancer cells SW1990 (ATCC, # CRL-2172) in culture, harvest and inject 2×10e^6 cells in 200 μL of 1:1 HBSS+matrigel solution subcutaneously on to the rear right flank of female athymic nude mice (22-25 gm, Harlan Laboratories). Expand human pancreatic cancer cells MIA PACA-2 (ATCC, # CRL-1420) or human non-small cell lung cancer cells A549 (ATCC, # CCl-185) in culture, harvest and inject 5×10e^6 cells in 200 μL of 1:1 HBSS+matrigel solution subcutaneously on to the rear right flank of female CB-17 SCID mice (22-25 gm, Charles River Laboratories International Inc.). Expand human melanoma cells A-375 (ATCC, # CRL-1619) in culture, harvest and inject 5×10e^6 cells in 200 μL of 1:1 HBSS+matrigel solution subcutaneously on to the rear right flank of female NIH nude rats (140-160 gm, Taconic Farms). Measure tumor growth and body weight twice per week beginning the seventh day after the implantation. When tumor sizes reach 200-400 mm^3, randomize animals and group into groups of eight to ten animals. Prepare test compound in an appropriate vehicle (vehicle: 1% HEC/0.25% Tween 80/0.05% Antifoam) and administer by oral gavage for 14 to 28 days. Tumor response is determined by tumor volume measurement performed twice a week during the course of treatment.

[3] = system: CALU-6; assay: Xenograft tumor model CALU-6; type: in vivo; conditions: oral
[4] = system: human pancreatic cancer cells SW1990; assay: Xenograft tumor model SW1990; type: in vivo, female athymic nude mice; conditions: oral
Procedure: as §1, with “Measure tumor growth and body weight twice per week beginning the seventh day after the implantation. When tumor sizes reach 200-400 mm^3, randomize animals and group into groups of eight to ten animals. Prepare test compound in an appropriate vehicle (vehicle: 1% HEC/0.25% Tween 80/0.05% Antifoam) and administer by oral gavage for 14 to 28 days.” left out

[5] = system: human non-small cell lung cancer cells A549; assay: Xenograft tumor model A549; type: in vivo, female CB-17 SCID mice; conditions: oral
Procedure: as §1, with “Measure tumor growth and body weight twice per week beginning the seventh day after the implantation. When tumor sizes reach 200-400 mm^3, randomize animals and group into groups of eight to ten animals. Prepare test compound in an appropriate vehicle (vehicle: 1% HEC/0.25% Tween 80/0.05% Antifoam) and administer by oral gavage for 14 to 28 days.” left out

COCCN1C(=O)c2cc(-c3ccnc(Nc4ccnn4C)c3)sc2C1(C)C [Example 1, 5-(2-Methoxyethyl)-6,6-dimethyl-2-{2-[(1-methyl-1H-pyrazol-5-yl)amino]pyridin-4-yl}-5,6-dihydro-4H-thieno[2,3-c]pyrrol-4-one]
TED50 (pRSK1 inhibition in tumor) [1]: 12 mg/kg
Delta T/C (%) ([2]; MIA PACA-2, 10 mg/kg BID): 76%
Regression (%) ([2]; MIA PACA-2, 25 mg/kg BID): −15%
Delta T/C (%) ([2]; MIA PACA-2, 25 mg/kg QD): 74%
Regression (%) ([2]; MIA PACA-2, 50 mg/kg BID): −72%
Delta T/C (%) ([2]; MIA PACA-2, 50 mg/kg QD): 97%
Regression (%) ([2]; MIA PACA-2, 75 mg/kg QD): −39%
Delta T/C (%) ([3]; CALU-6, 10 mg/kg BID, p 0.013): 44%
Regression (%) ([3]; CALU-6, 25 mg/kg BID, p <0.001): −10%
Delta T/C (%) ([3]; CALU-6, 25 mg/kg QD, p 0.010): 46%
Regression (%) ([3]; CALU-6, 50 mg/kg BID, p <0.001): −75%
Delta T/C (%) ([3]; CALU-6, 50 mg/kg QD, p <0.001): 92%
Regression (%) ([3]; CALU-6, 75 mg/kg QD, p <0.001): −38%
Delta T/C (%) ([4]; SW1990, 10 mg/kg BID, p 0.364): 24%
Delta T/C (%) ([4]; SW1990, 30 mg/kg BID, p 0.005): 64%
Delta T/C (%) ([5]; A549, 10 mg/kg BID, p 0.471): 13%
Delta T/C (%) ([5]; A549, 30 mg/kg BID, p <0.001): 66%
